Holding throughout (test): NCI-60 cell line screen, 48 h
Experiment [1] has as its system EKVX NSCLC.
For experiment [2], the system named is MOLT-4 leukemia.
Experiment [3] relates to NCI-H23 lung.
Experiment [4] has as its system LOX IMVI melanoma.
Experiment [5] has as its system SK-MEL-2 melanoma.
Experiment [6] concerns UACC-257 melanoma.
Experiment [7] concerns A498 renal.
The subject of experiment [8] is BT-549 breast.
Experiment [9] relates to ACHN renal.
The subject of experiment [10] is UO-31 renal.

“And” between values parts separate entries of the source, which are not always exact repeats. Equal entries are not always repeated.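 Grown in 96-well plates, cells were treated for 48 hours with each compound at five concentrations. Insufficient inhibition: endpoint recorded as highest concentration tested. The concentration for 50% growth inhibition is given as GI50. The concentration for full growth arrest is given as TGI.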 Bounds are passed on as bounds.

With `N#Cc1c(N)nc(N2CCOCC2)c(C#N)c1-c1cccc(O)c1`, the GI50 in [1] is 73500 nM; in [2] it was over 100000 nM; in experiment [3], 54.8 µM; in experiment [4], over 100000 nM; in experiment [5] it was over 100 µM; in [6] it was over 100000 nM. For the same molecule, the GI50 in [7] was 14800 nM; in [8] it was 89900 nM. The TGI in experiment [1], in [2], in experiment [3], in experiment [4], in experiment [5] and in [6] was over 100 µM throughout. In addition, the figures for the TGI in [7] and in experiment [8] were 58.3 µM and over 100 µM, respectively.
In the case of `O=S(=O)(NCCNc1cc(-c2cn(-c3ccccc3)nc2-c2cccc(O)c2)ccn1)c1ccc(F)cc1`, the GI50 was 2590 nM in experiment [1]; 2230 nM in experiment [2]; 2.66 µM in experiment [3]; 2320 nM in experiment [9]; 1.92 µM in experiment [5]; 2850 nM in experiment [6]. The results for the GI50 in experiment [7], in experiment [10] and in experiment [8] were 2690 nM, 2310 nM and 2030 nM, respectively. For the same molecule, the TGI in experiment [1] is 20.3 µM; in [2], 5.46 µM; in experiment [3], 10.8 µM; in [9], 7.34 µM; in experiment [5], 4.32 µM; in [6] it was 7.14 µM. Moreover, the TGI came out at 9.26 µM in [7], 7.88 µM in [10] and 7.68 µM in [8].
As to `Cc1cc2c(cc1C)[n+](=O)c(C(=O)c1cccs1)c(C(F)(F)F)n2[O-]`, the GI50 is 915 nM and 1170 nM in [1]; 4390 nM in experiment [2]; 6.25 µM in experiment [3]; 7170 nM and 2750 nM in experiment [9]; 15.8 µM and 8.02 µM in experiment [5]; 2400 nM and 2610 nM in experiment [6]. Also, the GI50 in experiment [10] was 1490 nM and 1070 nM; in experiment [8], 565 nM. Besides, the TGI in experiment [1] is 3.22 µM and 4.15 µM; in experiment [2] it was 50 µM; in experiment [3], 19.7 µM; in experiment [9], 14.9 µM and 17.4 µM; in experiment [4] it was 12.3 µM and 13.2 µM; in experiment [5], 50 µM and 26.3 µM. Moreover, the TGI is 38 µM and 6.55 µM in experiment [6]; 5.83 µM and 2.34 µM in experiment [10]; 2.53 µM in [8].
As to `CCN(CC)CCCC(C)N/C(c1cccc(OC)c1)=c1\c(=O)[nH]n(-c2c3ccccc3nc3ccccc23)c(=O)\c1=C(/NC(C)CCCN(CC)CC)c1cccc(OC)c1` (centres undefined), the GI50 in experiment [2] was 600 nM; in [3], 2.02 µM; in [9] it was 508 nM; in experiment [6] it was 1780 nM; in [7], 1520 nM; in [10], 1310 nM. Moreover, the GI50 in experiment [8] was 2150 nM. The TGI in experiment [2] came to 3.89 µM; in experiment [3], 4.69 µM; in [9], 2.35 µM; in [6], 3.43 µM; in experiment [7], 2.93 µM; in experiment [10] it was 3.61 µM. The TGI in [8] stood at 4.85 µM.
In the case of `C/C=C/C/C=C/CCC(=O)C1OC1C(N)=O` (centres undefined), the TGI in experiment [1] stood at 36.4 µM; in experiment [2], 51.7 µM; in [3], 28.2 µM; in experiment [9] it was 28.5 µM; in experiment [4], 26.6 µM; in experiment [5] it was 32.5 µM. For the same molecule, the figures for the TGI in experiment [6], in [10] and in experiment [8] were 31.1 µM, 29.5 µM and 24.6 µM, respectively.
In the case of `N#C/C(=C\c1ccc(Br)cc1)n1nnc2cc(F)c(F)cc21`, the GI50 was 2700 nM in [2]; 1.76 µM in [3]; 1900 nM in [9]; 1550 nM in experiment [4]; 1.76 µM in experiment [5]; 1740 nM in experiment [7]. Besides, the figures for the GI50 in experiment [10] and in experiment [8] were 1460 nM and 1740 nM, respectively. The TGI in experiment [2] turned out to be 8.65 µM; in [3], 3.44 µM; in experiment [9], 3.63 µM; in [4], 2.98 µM; in [5], 3.4 µM; in [7], 3.2 µM. The TGI in experiment [10] came out at 2.78 µM; in experiment [8], 4.51 µM.
Regarding `O=C1OC2(c3ccccc31)c1cc(I)c(O)c(I)c1Oc1c2cc(I)c(O)c1I`, the TGI in experiment [1], in [2], in [3], in [9], in experiment [4] and in experiment [5] was over 100 µM throughout. In addition, the TGI in experiment [6], in [10] and in experiment [8] was over 100 µM throughout.
Regarding `O=c1[nH]cnc2c1nnn2[C@@H]1O[C@H](CO)[C@@H](O)[C@H]1O`, the GI50 was 1960 nM in experiment [2]; 6.65 µM in experiment [3]; 2870 nM in experiment [9]; 2140 nM in experiment [4]; 5.4 µM in [5]; 28600 nM in experiment [6]. The GI50 in [7] was 2510 nM; in experiment [10], 4460 nM; in experiment [8] it was 9810 nM. For the same molecule, the TGI in [2] is 22.9 µM; in experiment [3] it was over 100 µM; in experiment [9], over 100 µM; in [4] it was over 100 µM; in [5], 70 µM; in [6] it was over 100 µM. The TGI in experiment [7] was 57.4 µM; in experiment [10], over 100 µM; in experiment [8], over 100 µM.
Regarding `CCOC(=O)CCc1c(C)c2ccc(O)cc2oc1=O`, the TGI in [1], in experiment [2], in [3], in experiment [9], in experiment [4] and in experiment [5] was over 100 µM each time. Further, the TGI in experiment [6], in [7] and in experiment [8] was over 100 µM in each case.
Consider `COc1cc(N)ccc1Nc1c2ccccc2nc2ccccc12`, for which the GI50 in experiment [2] is 2210 nM; in experiment [3] it was 15 µM; in experiment [9], 3360 nM; in experiment [4], 5270 nM; in experiment [5], 23.3 µM; in experiment [6] it was 20200 nM. The GI50 in experiment [7] is 6280 nM; in experiment [10], 5330 nM; in [8] it was 15300 nM. Also, the TGI is over 28.5 µM in [2]; 45.2 µM in experiment [3]; 14.3 µM in experiment [9]; 35.4 µM in experiment [4]; 44.9 µM in experiment [5]; 44 µM in [6]. Further, the TGI in experiment [7] is 22.4 µM; in experiment [10], 22.8 µM; in experiment [8] it was 32.4 µM.
